What all share (format): biochemical
The target in one experiment is T1, ROCK I (AA 6-553) (Homo sapiens, UniProt Q13464).
T1 construct: ROCK I (AA 6-553)
The experiment in a line: ROCK inhibition assay, standard coupled enzyme system ("Enzyme"). The settings on record: enzyme-linked assay. The gist of the method:
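ROCK I (AA 6-553) at 45 nM and 30 °C with 45 μM ATP and 200 μM peptide, in 100 mM HEPES pH 7.5, 10 mM MgCl2, 25 mM NaCl, 2 mM DTT, 1.5% DMSO. ADP output read by a PK/LDH coupled system: 2.5 mM PEP, 350 μM NADH, 30 μg/ml PK, 10 μg/ml LDH.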

Experiment [1] deals with T2, full length Aurora-A (AA 1-403) (Homo sapiens, UniProt O14965).
T2 construct: full length Aurora-A (AA 1-403)
T2 sequence (O14965 1-403): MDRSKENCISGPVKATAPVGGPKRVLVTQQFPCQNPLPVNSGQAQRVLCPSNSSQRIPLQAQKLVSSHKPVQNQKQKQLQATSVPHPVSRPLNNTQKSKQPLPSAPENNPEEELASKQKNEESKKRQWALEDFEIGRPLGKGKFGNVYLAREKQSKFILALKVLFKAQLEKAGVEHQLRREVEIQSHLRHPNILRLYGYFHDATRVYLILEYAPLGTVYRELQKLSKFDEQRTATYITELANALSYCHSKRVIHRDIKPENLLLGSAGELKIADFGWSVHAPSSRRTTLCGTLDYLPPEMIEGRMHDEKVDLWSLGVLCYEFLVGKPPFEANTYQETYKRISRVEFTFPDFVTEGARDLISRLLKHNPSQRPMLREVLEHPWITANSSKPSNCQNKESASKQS
The experiment in a line: Aurora-A inhibition assay, standard coupled enzyme system. The following applies: average Ki if more than one value determined.

The target of the next experiment is T3, Aurora-C (Homo sapiens, UniProt Q9UQB9).
T3 sequence (Q9UQB9 1-309): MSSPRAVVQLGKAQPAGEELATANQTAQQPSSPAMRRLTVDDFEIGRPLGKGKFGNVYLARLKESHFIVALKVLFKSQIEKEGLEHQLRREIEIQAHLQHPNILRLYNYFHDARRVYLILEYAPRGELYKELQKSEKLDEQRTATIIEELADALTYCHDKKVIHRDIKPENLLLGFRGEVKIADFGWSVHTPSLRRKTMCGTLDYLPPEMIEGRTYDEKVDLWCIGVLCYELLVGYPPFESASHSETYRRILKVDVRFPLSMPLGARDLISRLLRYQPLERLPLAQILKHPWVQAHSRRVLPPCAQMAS
The experiment in a line: Aurora-C inhibition assay, coupled enzyme system as for Aurora-A. The settings on record: average Ki if more than one value determined. Here is the method:
Compounds were screened for their ability to inhibit full length Aurora-A (AA 1-403) activity using a standard coupled enzyme system (Fox et al., Protein Sci. 7, pp. 2249 (1998)). Reactions were carried out in a solution containing 100 mM HEPES (pH 7.5), 10 mM MgCl2, 25 mM NaCl, 300 μM NADH, 1 mM DTT and 3% DMSO. Final substrate concentrations in the assay were 200 μM ATP (Sigma Chemicals, St Louis, Mo.) and 800 μM peptide (LRRASLG, American Peptide, Sunnyvale, Calif.). Reactions were carried out at 30° C. and 35 nM Aurora-A. Final concentrations of the components of the coupled enzyme system were 2.5 mM phosphoenolpyruvate, 200 μM NADH, 60 μg/ml pyruvate kinase and 20 μg/ml lactate dehydrogenase.
An assay stock buffer solution was prepared containing all of the reagents listed above with the exception of ATP and the test compound of interest. The assay stock buffer solution (60 μl) was incubated in a 96 well plate with 2 μl of the test compound of interest at final concentrations spanning 0.002 μM to 30 μM at 30° C. for 10 min. Typically, a 12 point titration was conducted by preparing serial dilutions (from 1 mM compound stocks) with DMSO of the test compounds in daughter plates. The reaction was initiated by the addition of 5 μl of ATP (final concentration 200 μM). Rates of reaction were obtained using a Molecular Devices Spectramax plate reader (Sunnyvale, Calif.) over 10 min at 30° C. The Ki values were determined from the rate data as a function of inhibitor concentration using computerized nonlinear regression (Prism 3.0, Graphpad Software, San Diego, Calif.). Aurora-C activity was screened in a similar manner using Aurora-C protein. Aurora-B activity was screened using a radioactive assay, such as described in Examples 1 and 2, but using Aurora-B protein.

Another experiment concerns the target Aurora-B (Homo sapiens, UniProt Q96GD4). As to the kind of experiment: Aurora-B inhibition assay, radioactive assay. The following applies: average Ki if more than one value determined. The gist of the method: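 Radiometric [γ-33P]ATP kinase assay run as described for JAK3/ROCK but with Aurora-B protein; 33P incorporation into substrate measured by filter capture and scintillation counting after TCA quench. Background-subtracted data fit to give Ki(app).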

The source of these data is US8501446B2 (Vertex Pharmaceuticals Incorporated, priority 2004, dated 2013).

Broadly, the Ki is a measure of affinity in units of concentration, obtained from inhibition or displacement.

T1 sequence (Q13464 6-553, species assumed): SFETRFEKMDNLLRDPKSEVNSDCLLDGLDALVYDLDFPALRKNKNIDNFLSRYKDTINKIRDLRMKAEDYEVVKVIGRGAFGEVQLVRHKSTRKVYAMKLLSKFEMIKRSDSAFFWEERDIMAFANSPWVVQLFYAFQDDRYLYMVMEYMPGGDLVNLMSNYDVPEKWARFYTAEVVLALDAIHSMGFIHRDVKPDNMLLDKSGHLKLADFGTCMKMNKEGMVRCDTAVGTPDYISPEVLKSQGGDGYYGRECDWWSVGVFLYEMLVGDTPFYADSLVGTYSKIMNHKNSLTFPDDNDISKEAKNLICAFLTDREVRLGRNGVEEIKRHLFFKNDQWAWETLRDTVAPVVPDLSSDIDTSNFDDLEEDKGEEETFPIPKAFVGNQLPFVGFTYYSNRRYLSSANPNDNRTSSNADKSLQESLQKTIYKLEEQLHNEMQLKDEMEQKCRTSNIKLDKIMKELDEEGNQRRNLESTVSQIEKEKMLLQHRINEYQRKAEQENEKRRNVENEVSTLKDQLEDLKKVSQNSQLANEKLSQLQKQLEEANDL
Aurora-B, sequence (Q96GD4 whole entry): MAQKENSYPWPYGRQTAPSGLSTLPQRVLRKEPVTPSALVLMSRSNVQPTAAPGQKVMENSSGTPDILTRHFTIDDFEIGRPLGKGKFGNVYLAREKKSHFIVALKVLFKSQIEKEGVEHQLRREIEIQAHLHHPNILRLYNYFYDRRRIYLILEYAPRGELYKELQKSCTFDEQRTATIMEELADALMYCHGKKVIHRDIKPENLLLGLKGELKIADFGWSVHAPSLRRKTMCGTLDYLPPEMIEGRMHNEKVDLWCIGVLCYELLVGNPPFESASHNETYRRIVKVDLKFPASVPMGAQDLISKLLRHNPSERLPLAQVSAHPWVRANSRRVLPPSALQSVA

For the molecule `CNC(=O)c1cc(N[C@@H](C)c2ccc(F)cc2)nc(-c2c[nH]c3ncc(Cl)cc23)n1` [Compound 359], the Ki is 500 to 5000 nM on ROCK I (AA 6-553), below 500 nM in experiment [1], below 500 nM at Aurora-C and below 500 nM on Aurora-B.

Consider `C#Cc1cnc2[nH]cc(-c3ncc(F)c(N[C@@H](C)c4ccc(F)cc4)n3)c2c1` [Compound 374], for which the Ki is 500 to 5000 nM at ROCK I (AA 6-553), below 500 nM in experiment [1], below 500 nM at Aurora-C and below 500 nM at Aurora-B.

In the case of `Fc1cnc(-c2c[nH]c3ncc(Cl)cc23)nc1NC1CCNCC1` [Compound 345], the Ki at ROCK I (AA 6-553) is below 500 nM; in experiment [1] it was below 500 nM; at Aurora-C, 500 to 5000 nM; at Aurora-B it was 500 to 5000 nM.

In the case of `Fc1cnc(-c2c[nH]c3ncc(Cl)cc23)nc1NCC1CCCCN1` (stereo not shown) [Compound 325], the Ki is 500 to 5000 nM on ROCK I (AA 6-553), below 500 nM in experiment [1], below 500 nM at Aurora-C and below 500 nM on Aurora-B.

As for `C[C@H](Nc1cc(CO)nc(-c2c[nH]c3ncc(Cl)cc23)n1)c1ccc(F)cc1` [Compound 339], the Ki is 500 to 5000 nM at ROCK I (AA 6-553), below 500 nM in experiment [1], below 500 nM on Aurora-C and below 500 nM on Aurora-B.

For `Clc1cnc2[nH]cc(-c3cccc(NC4CCCCC4)n3)c2c1` [Compound 290], the Ki at ROCK I (AA 6-553) is 500 to 5000 nM; in experiment [1] it was below 500 nM; at Aurora-C it was 500 to 5000 nM; on Aurora-B, 500 to 5000 nM.

On to `Fc1cnc(-c2c[nH]c3ncc(Cl)cc23)nc1NCc1ccccn1` [Compound 316], for which the Ki on ROCK I (AA 6-553) was 500 to 5000 nM; in experiment [1], below 500 nM; on Aurora-C it was below 500 nM; on Aurora-B, below 500 nM.

For the molecule `Fc1cnc(-c2c[nH]c3ncc(Cl)cc23)nc1NC1CCCNC1` (stereo not shown) [Compound 347], the Ki at ROCK I (AA 6-553) is below 500 nM; in experiment [1], below 500 nM; on Aurora-C, 500 to 5000 nM; at Aurora-B, 500 to 5000 nM.

With `Cc1cc(N[C@@H](C)c2ccc(F)cc2)nc(-c2c[nH]c3ncc(Cl)cc23)n1` [Compound 324], the Ki at ROCK I (AA 6-553) is 500 to 5000 nM; in experiment [1], below 500 nM; on Aurora-C, below 500 nM; on Aurora-B, below 500 nM.

With `Clc1ccc(CNc2cccc(-c3c[nH]c4ncc(Cl)cc34)n2)cc1` [Compound 242], the Ki at ROCK I (AA 6-553) is 500 to 5000 nM; in experiment [1] it was below 500 nM; at Aurora-C, below 500 nM; at Aurora-B, 500 to 5000 nM.

As to `CNC(=O)[C@H](CO)Nc1nc(-c2c[nH]c3ncc(Cl)cc23)ncc1F` [Compound 387], the inhibition constant (Ki) at ROCK I (AA 6-553) is 500 to 5000 nM; in experiment [1], below 500 nM; on Aurora-C, below 500 nM; at Aurora-B it was below 500 nM.

Regarding `Fc1cnc(-c2c[nH]c3ncc(Cl)cc23)nc1NCc1ccc(Cl)cc1` [Compound 238], the Ki at ROCK I (AA 6-553) is 500 to 5000 nM; in experiment [1], below 500 nM; on Aurora-C, below 500 nM; on Aurora-B it was below 500 nM.

For the molecule `C[C@H](Nc1nc(-c2c[nH]c3ncc(Cl)cc23)ncc1F)c1cccc(O)c1` [Compound 306], the Ki was 500 to 5000 nM at ROCK I (AA 6-553), below 500 nM in experiment [1], below 500 nM on Aurora-C and below 500 nM on Aurora-B.

As to `Fc1cnc(-c2c[nH]c3ncc(Cl)cc23)nc1NCC1CCCCC1` [Compound 349], the Ki at ROCK I (AA 6-553) is 500 to 5000 nM; in experiment [1] it was below 500 nM; at Aurora-C, below 500 nM; at Aurora-B, below 500 nM.

For the molecule `Fc1cnc(-c2c[nH]c3ncc(Cl)cc23)nc1NCC1CCCNC1` (stereo not shown) [Compound 326], the Ki (at ROCK I (AA 6-553); in experiment [1]; at Aurora-C; on Aurora-B) was below 500 nM each time.

As to `C[C@H](Nc1nc(-c2c[nH]c3ncc(Cl)cc23)ncc1F)C(=O)NCCNS(C)(=O)=O` [Compound 368], the Ki at ROCK I (AA 6-553) is 500 to 5000 nM; in experiment [1] it was below 500 nM; on Aurora-C, below 500 nM; at Aurora-B, below 500 nM.
